Assay results as given in publication PMC7101335, “Aryl-alkyl-lysines: Novel agents for treatment of C. difficile infection” (Scientific Reports, 2020).
In brackets after ≈: the same amount, converted by molar mass. Where two headings read alike, the source gives them in different places. One block for each compound: values may come before it.

What was measured:
Clostridium difficile = assay: Broth microdilution MIC against Clostridium difficile strains; type: cell-based; conditions: Clostridioides difficile
Protocol: The broth microdilution assay was utilized following the Clinical and Laboratory Standards Institute (CLSI) guidelines with slight modifications. Briefly, C. difficile strains were grown on anaerobic blood agar plates (Becton Dickinson, BD) and suspended in brain heart infusion supplemented broth (Brain heart infusion medium, BD, supplemented with yeast extract, L-cysteine, Vitamin K1 and Hemin, Sigma) to achieve a bacterial concentration of ~10^5 CFU/ml. The bacterial suspension was seeded in 96-well plates containing drugs/compounds, in duplicate, at the required concentration. Plates were then incubated at 37 °C anaerobically for 48 hours. MICs reported are the lowest concentration of each agent that inhibited the visual growth of bacteria.

E. faecalis = assay: Broth microdilution MIC against E. faecalis strains; type: cell-based; conditions: Enterococcus faecalis, read-out: Minimum inhibitory concentration
E. faecium = assay: Broth microdilution MIC against E. faecium strains; type: cell-based; conditions: Enterococcus faecium, read-out: Minimum inhibitory concentration
[1] = test system: human ileocecal colorectal adenocarcinoma cell line (HRT-18); assay: Cytotoxicity, MTS assay, HRT-18 cells; type: cell-based; conditions: 32 µg mL^−1, 2 hours
Protocol: Briefly, ~2 × 10^4 cells suspended in 100 µL of RPMI-1640 supplemented with 10% horse serum were seeded in a 96-well plate and incubated at 37 °C with 5% CO2. The cells were cultured for 24 hours until reaching ~90% confluency. The cells were further incubated with the aforementioned concentrations of the compounds for 2 hours. Afterwards, culture media were discarded and the cells in each well were washed with PBS and 100 µL of cell culture media were added prior to addition of the assay reagent MTS 3-(4,5-dimethylthiazol-2-yl)-5-(3-carboxymethoxyphenyl)-2-(4-sulfophenyl)-2H-tetrazolium) (Promega). The plates were incubated for 4 hours at 37 °C in a humidified 5% CO2 atmosphere. The absorbance was recorded at 490 nm and the corrected absorbance readings (actual absorbance readings for each treatment subtracted from background absorbance) were taken using a kinetic ELISA microplate reader (SpectraMax i3x, Molecular Devices, Sunnyvale, CA, USA). The quantity of viable cells after treatment with each compound was expressed as a percentage of the control, DMSO. Asterisk (*) denotes a significant difference from the DMSO-treated cells using 2-way analysis of variance (ANOVA) followed by Dunnett’s pairwise comparison.

[2] = test system: vancomycin-resistant and vancomycin-susceptible strains of Enterococcus; assay: Broth microdilution MIC against Enterococcus strains (E. faecalis and E. faecium, summary in text); type: cell-based; conditions: all E. faecalis and E. faecium strains tested, vancomycin-resistant and -sensitive
[3] = Caco-2 bidirectional permeability assay; type: in vitro ADME, human; conditions: human, Caco-2; for efflux ratio at 2 h: Re = (Papp B→A)/(Papp A→B); for Papp A→B at 2 h: apical (pH 6.5) to basolateral (pH 7.4); for Papp A→B at 2 h / Papp B→A at 2 h: two hours; for Papp B→A at 2 h: basolateral to apical
Protocol: The Caco-2 bidirectional permeability assay was conducted as described in previous reports[29],[30],[41],[42]. The Caco-2 cell line is similar to human enterocytes and expresses P-glycoprotein and other relevant metabolic enzymes that affect absorption of orally-administered xenobiotics across the intestinal mucosa[34],[43],[44]. Caco-2 cells were grown in tissue culture flasks, trypsinized (by rinsing cells with phosphate-buffered saline and then treating with trypsin-EDTA for 5–10 minutes at 37 °C with 5% CO2 until cells detached), suspended in Dulbecco’s Modified Eagle Medium with 10% fetal bovine serum, 1% nonessential amino acids and penicillin-streptomycin, and then seeded onto wells of a Millipore 96-well Caco-2 plate. Cells were cultured at 37 °C with 5% CO2 until confluent (approximately three weeks) and media was changed at relevant time points. For Apical to Basolateral (A → B) permeability, the test article was added to the apical (A) compartment and the amount of permeation (Papp, as calculated below) to the basolateral (B) compartment was determined; for Basolateral to Apical (B → A) permeability, the test article was added to the B compartment and the amount of permeation to the A compartment was determined. […] Caco-2 cells were incubated with these buffers for two hours, and the receiver side buffer was removed for analysis by LC/MS/MS. To verify the tight junctions and integrity of Caco-2 cell monolayers, aliquots of the cell buffers were analyzed by fluorescence (Lucifer yellow transport ≤ 2%). Any deviations from control values are reported. Data are expressed as permeability (Papp) = (dQ/dt)/(C0A) where dQ/dt is the rate of permeation, C0 is the initial concentration of test agent, and A is the area of the monolayer.

SMILES: CCCCCCCCCCCCN(Cc1cccc2ccccc12)C(=O)[C@@H](N)CCCCN [NCK-12]
MIC (Clostridium difficile; C. difficile Isolate 1 (NR-13427), read-out: Minimum inhibitory concentration): 4 µg/mL (≈ 8.82 µM)
MIC (Clostridium difficile; C. difficile Isolate 2 (NR-13428), read-out: Minimum inhibitory concentration): 2 µg/mL (≈ 4.41 µM)
MIC (Clostridium difficile; C. difficile Isolate 4 (NR-13430), read-out: Minimum inhibitory concentration): 2 µg/mL (≈ 4.41 µM)
MIC (Clostridium difficile; C. difficile Isolate 5 (NR-13431), read-out: Minimum inhibitory concentration): 1 µg/mL (≈ 2.2 µM)
MIC (Clostridium difficile; C. difficile Isolate 6 (NR-13432), read-out: Minimum inhibitory concentration): 2 µg/mL (≈ 4.41 µM)
MIC (Clostridium difficile; C. difficile Isolate 9 (NR-13435), read-out: Minimum inhibitory concentration): 2 µg/mL (≈ 4.41 µM)
MIC (Clostridium difficile; C. difficile Isolate 10 (NR-13436), read-out: Minimum inhibitory concentration): 2 µg/mL (≈ 4.41 µM)
MIC (Clostridium difficile; C. difficile P2 (NR-32883), read-out: Minimum inhibitory concentration): 1 µg/mL (≈ 2.2 µM)
MIC (Clostridium difficile; C. difficile P4 (NR-32889), read-out: Minimum inhibitory concentration): 4 µg/mL (≈ 8.82 µM)
MIC (Clostridium difficile; C. difficile P8 (NR-32888), read-out: Minimum inhibitory concentration): 4 µg/mL (≈ 8.82 µM)
MIC (Clostridium difficile; C. difficile P13 (NR-32891), read-out: Minimum inhibitory concentration): 2 µg/mL (≈ 4.41 µM)
MIC (Clostridium difficile; C. difficile P15 (NR-32892), read-out: Minimum inhibitory concentration): 2 µg/mL (≈ 4.41 µM)
MIC (Clostridium difficile; C. difficile P20 (NR-32896), read-out: Minimum inhibitory concentration): 2 µg/mL (≈ 4.41 µM)
MIC (Clostridium difficile; C. difficile P21 (NR-32897), read-out: Minimum inhibitory concentration): 2 µg/mL (≈ 4.41 µM)
MIC (Clostridium difficile; C. difficile P29 (NR-32903), read-out: Minimum inhibitory concentration): 2 µg/mL (≈ 4.41 µM)
MIC (Clostridium difficile; across all tested strains of C. difficile): 1 to 4 µg/mL (≈ 2.2 to 8.82 µM)
MIC (E. faecalis; E. faecalis B3196): 4 µg/mL (≈ 8.82 µM)
MIC (E. faecalis; E. faecalis B3286): 8 µg/mL (≈ 17.6 µM)
MIC (E. faecalis; E. faecalis B3336): 8 µg/mL (≈ 17.6 µM)
MIC (E. faecalis; E. faecalis SF24397): 8 µg/mL (≈ 17.6 µM)
MIC (E. faecalis; E. faecalis SF28073 (vancomycin-resistant)): 4 µg/mL (≈ 8.82 µM)
MIC (E. faecium; E. faecium E417 (vancomycin-resistant)): 4 µg/mL (≈ 8.82 µM)
MIC (E. faecium; E. faecium E1071): 8 µg/mL (≈ 17.6 µM)
MIC (E. faecium; E. faecium UAA714): 8 µg/mL (≈ 17.6 µM)
toxicity to HRT-18 cells [1]: survived
MIC [2]: 4 to 8 µg/mL (≈ 8.82 to 17.6 µM)

efflux ratio at 2 h [3]: 5.18
Papp A→B at 2 h [3]: 0.186 ×10⁻⁶ cm/s
Papp B→A at 2 h [3]: 0.942 ×10⁻⁶ cm/s
SMILES: CNC(=C[N+](=O)[O-])NCCSCc1ccc(CN(C)C)o1 [Ranitidine]

SMILES: CN[C@H](CC(C)C)C(=O)N[C@H]1C(=O)N[C@@H](CC(N)=O)C(=O)N[C@H]2C(=O)N[C@H]3C(=O)N[C@H](C(=O)N[C@H](C(=O)O)c4cc(O)cc(O)c4-c4cc3ccc4O)[C@H](O)c3ccc(c(Cl)c3)Oc3cc2cc(c3O[C@@H]2O[C@H](CO)[C@@H](O)[C@H](O)[C@H]2O[C@H]2C[C@](C)(N)[C@H](O)[C@H](C)O2)Oc2ccc(cc2Cl)[C@H]1O [Vancomycin, reference compound]
MIC (Clostridium difficile; C. difficile strains P8, P13 and Isolate 10): 0.5 µg/mL (≈ 0.345 µM)
MIC (Clostridium difficile; read-out: Minimum inhibitory concentration, C. difficile Isolate 1 (NR-13427)): 1 µg/mL (≈ 0.69 µM)
MIC (Clostridium difficile; read-out: Minimum inhibitory concentration, C. difficile Isolate 2 (NR-13428)): 1 µg/mL (≈ 0.69 µM)
MIC (Clostridium difficile; read-out: Minimum inhibitory concentration, C. difficile Isolate 4 (NR-13430)): 0.5 µg/mL (≈ 0.345 µM)
MIC (Clostridium difficile; read-out: Minimum inhibitory concentration, C. difficile Isolate 5 (NR-13431)): 0.5 µg/mL (≈ 0.345 µM)
MIC (Clostridium difficile; read-out: Minimum inhibitory concentration, C. difficile Isolate 6 (NR-13432)): 0.5 µg/mL (≈ 0.345 µM)
MIC (Clostridium difficile; read-out: Minimum inhibitory concentration, C. difficile Isolate 9 (NR-13435)): 0.5 µg/mL (≈ 0.345 µM)
MIC (Clostridium difficile; read-out: Minimum inhibitory concentration, C. difficile Isolate 10 (NR-13436)): 0.5 µg/mL (≈ 0.345 µM)
MIC (Clostridium difficile; read-out: Minimum inhibitory concentration, C. difficile P2 (NR-32883)): 0.5 µg/mL (≈ 0.345 µM)
MIC (Clostridium difficile; read-out: Minimum inhibitory concentration, C. difficile P4 (NR-32889)): 2 µg/mL (≈ 1.38 µM)
MIC (Clostridium difficile; read-out: Minimum inhibitory concentration, C. difficile P8 (NR-32888)): 0.5 µg/mL (≈ 0.345 µM)
MIC (Clostridium difficile; read-out: Minimum inhibitory concentration, C. difficile P13 (NR-32891)): 0.5 µg/mL (≈ 0.345 µM)
MIC (Clostridium difficile; read-out: Minimum inhibitory concentration, C. difficile P15 (NR-32892)): 0.5 µg/mL (≈ 0.345 µM)
MIC (Clostridium difficile; read-out: Minimum inhibitory concentration, C. difficile P20 (NR-32896)): 1 µg/mL (≈ 0.69 µM)
MIC (Clostridium difficile; read-out: Minimum inhibitory concentration, C. difficile P21 (NR-32897)): 0.5 µg/mL (≈ 0.345 µM)
MIC (Clostridium difficile; read-out: Minimum inhibitory concentration, C. difficile P29 (NR-32903)): 0.5 µg/mL (≈ 0.345 µM)
MIC (Clostridium difficile; the rest of the C. difficile strains): 0.5 to 1 µg/mL (≈ 0.345 to 0.69 µM)
MIC (E. faecalis): 1 µg/mL (≈ 0.69 µM)
MIC (E. faecium): > 128 µg/mL

efflux ratio at 2 h [3]: 1.54
Papp A→B at 2 h [3]: 12.7 ×10⁻⁶ cm/s
Papp B→A at 2 h [3]: 19.6 ×10⁻⁶ cm/s
SMILES: CC(=O)CC(c1ccccc1)c1c(O)c2ccccc2oc1=O (stereo not drawn) [Warfarin]
